Measurements taken from US11149277B2, “Method of producing enriched exosomes” (National Health Research Institutes, priority 2016, dated 2021).

Tested on: mesenchymal stem cells (MSCs)
Experiment: EV/exosome release from mesenchymal stem cells
Format: cell-based
Conditions: GW for 8 days
Description: FIG. 10 includes blots and a graph. (A) is a graph showing vesicle number analysis of GW-treated mesenchymal stem cells (MSCs) P4 fractions. The CM-P4 GW-treated MSCs were collected and subjected to NanoSight Nanoparticle Tracking Analysis (NTA). Quantification of EV/exosome release is shown as the ratio of [vesicle number]/[cell number]. Data are means±SEM (n=3). ***P≤0.001. (B) is a set of blots showing the protein contents measured in the EV/exosome fraction released by MSCs treated with vehicle DMSO (MSC) or EP4 antagonists (MSCGW). The culture media (D1-4: conditioned medium from day 1 to day 4; D5-8: conditioned medium from day 5 to day 8) were collected from MSCs treated with vehicle (MSC), or GW (MSCGW) for 8 days. (C) is a set of blots showing the protein contents measured in the EV/exosome fraction released by neural stem cells (NSCs) treated with vehicle DMSO or EP4 antagonists. […]
(A) Vesicle number of GW-treated MSC P4 fractions was analyzed. […] (B) Proteins were measured in the EV/exosome fraction released by MSCs treated with vehicle DMSO, EP4 antagonists (GW), or EP4 agonist PGE2. […] (C) Cytokines were measured in the EV/exosome fraction released by MSCs treated with DMSO (MSC) or EP4 antagonist (MSCGW). […] EV/exosome cytokines released by the same number of MSCs were measured using cytokine arrays (C) and Bio-plex (D; IL-10). […]

CCOc1c2c(c(OCC)c3ccccc13)C(=O)N(c1ccc(CC(=O)NS(=O)(=O)c3ccccc3)cc1)C2 [GW627368X]
release of EVs/exosomes from MSCs: increased the release of EVs/exosomes
